# Reference: patent US20030212034A1, “Method of treatment of obesity and paralyzed muscle and ergogenic aids” (priority 2002, published 2003)
# Legend:
# Format in all cases: in vivo, rat
# [1] = Food intake, body weight and organ weights after 4 weeks of daily AICAR injection
# Description: (§1) To determine the effect of chronic injection of AICAR on muscle enyzme activities or expression and on muscle GLUT4, rats were injected subcutaneously (between 8 and 10 a.m.) with AICAR (1 mg/g) or saline vehicle daily for 28±1 days in succession. Beginning with the first injection, controls were pair fed with AICAR-injected rats. Rats were anesthetized by intraperitoneal injection of pentobarbital sodium 22-25 hours after the last AICAR injection and the white and red regions of the quadriceps and the soleus muscles were removed and frozen as described above. Muscles were kept frozen at −70° C. until analyzed. Liver, heart, kidney, and fat pads were weighed.
# [2] = tested on: cytochrome c; experiment: Muscle cytochrome c protein by western blot after chronic AICAR injection; conditions: AICAR 4 weeks, FIG. 2
# Description: as §1
# For the chronic effects of AICAR injection muscles were analyzed for glycogen GLUT-4, hexokinase, lactate dehydrogenase, and several mitochondrial enzymes. Hassid, W. Z., & S. Abraham Methods Enzymol. 3:35-36, 1957. GLUT4 was quantitated by western blotting as described previously using GLUT4 polyclonal antibody RaIRGT, Biogenesis, Sandown, N.H.) and horseradish peroxidase-conjugated donkey anti-rabbit IgG (Amersham Life Science, Arlington Heights, Ill.). Holmes, B. F., et al. J. Appl Physiol 87:1990-1995, 1999. δ-Aminolevulinic acid synthase was determined using western blotting techniques as described previously. Li, B., et al. J. Biol. Chem. 274:17534-17540, 1999. […] Protein bands were quantified by densitometry.
# [3] = tested on: AMP-activated protein kinase (AMPK); experiment: AMPK activity in denervated and contralateral muscles after acute AICAR injection; conditions: acute AICAR 1 mg/g
# From the text: Rats were anesthetized with ether and the sciatic nerve of the right hindlimb was severed. The left hindlimb was sham operated to serve as a control. Both skin wounds were closed with a metal clips. The rats used for the acute study were also implanted with a jugular catheter which was exteriorized on the back of the neck at the time of denervation for rapid administration of anesthesia.
# Rats were denervated between 8:30 a.m. and 10:30 a.m. and were then given 25 g of food. Rats were handled twice during the day to accustom them to being handled. The rats were given a single subcutaneous injection 24 hours. after surgery of either AICAR (1 mg/g body weight) in sterile 0.9% NaCl or with just 0.9% NaCl, and were subsequently anesthetized intravenously. Soleus and gastrocnemius muscles from both sham and denervated sides were extracted and quick frozen in liquid nitrogen for analysis. AMPK activity and acetyl-Co A carboxylase (ACC) activity were determined as previously described. Winder W W & Hardie D G, Am J. Physiol 270 (Endocrinol Metab 33): E299-E304, 1996. Because this analysis is done on homogenates prepared by ammonium sulfate precipitation, only those effects on AMPK activity modified by phosphorylation are measured. […] Because ACC is a target for phosphorylation by AMPK, and because ACC activity has been reported to decrease in response to phosphorylation by AMPK, ACC activity is measured to give an indication of the in vivo actions of AMPK.
# [4] = AICAR 1 mg/g s.c. daily for four weeks
structure (smiles),measurement,setting,value
"NC(=O)c1ncn([C@@H]2O[C@H](CO)[C@@H](O)[C@H]2O)c1N [AICAR, 5-aminoimidazole-4-carboxamide-1-β-D-ribofuranoside]",Epididymal Fat Pad weight,[1]; [4],1.21 ± 0.10 g
same,Heart weight,[1]; [4],0.80 ± 0.02 g
same,Kidney weight,[1]; [4],0.99 ± 0.02 g
same,Liver weight,[1]; [4],16.0 ± 0.50 g
same,Retroperitoneal Fat Pad weight,[1]; [4],0.90 ± 0.08 g
same,Body Weight,"[1]; AICAR 1 mg/g s.c. daily for four weeks, pair-fed controls",254 ± 5 g
same,food intake and body weight vs saline injected rats,"[1]; AICAR for 4 weeks, FIG. 1",No statistically significant differences
same,cytochrome c protein vs saline controls,[2]; red quadriceps,not in red quadriceps
same,cytochrome c protein vs saline controls,[2]; white quadriceps,also increased
same,AMPK activity vs saline-treated contralateral innervated muscles,"[3]; contralateral innervated gastrocnemius, FIG. 7",significantly (P<0.05) elevated
same,AMPK activity vs saline-treated contralateral innervated muscles,"[3]; contralateral innervated soleus, FIG. 8",significantly (P<0.05) elevated
same,AMPK activity vs saline-treated contralateral innervated muscles,"[3]; denervated gastrocnemius, FIG. 7",significantly (P<0.05) elevated
